Laboratory results from article PMC4510350 (PLoS Neglected Tropical Diseases, 2015).
Converted amounts (≈) assume the structure as drawn. “Also recorded” adds a separate entry of the source. Where a SMILES comes first, the peptide text is derived from it. Where no end group is shown, it is not given here. [ ]: non-standard residue; d: D form.

How the values were obtained:
B. thailandensis (E264) = details: pH 7.4
B. pseudomallei = details: cited from earlier work
B. thailandensis biofilm = assay type: cell-based, Burkholderia thailandensis
[1] = tested on: B. thailandensis E264 pre-formed biofilm; assay type: cell-based, Burkholderia thailandensis; details: n = 8
[2] = tested on: multiple Burkholderia species; details: cited from earlier work

## KRAKKFFKKLK-NH2 [ATRA-1A]
B. thailandensis (E264); 3 h
  EC50: 9.83 µM

## bactenecin
B. pseudomallei
  antimicrobial activity against B. pseudomallei: antimicrobial against B. pseudomallei

## KRAKKFFKKPK [ATRA-2]
B. thailandensis biofilm
  biofilm inhibition: did not inhibit biofilm formation; also recorded: not biofilm inhibition
[1]
  dispersion of pre-formed biofilm: no biofilm dispersion activity

## HNP-3
B. thailandensis (E264)
  antimicrobial activity / whether an EC50 could be determined: could not be calculated because the peptide was ineffective

## HNP-4 (VCSCRLVFCRRTELRVGNCLIGGVSFTYCCTRV; ends and bridges not checked; cysteine pairing not given here; UniProt P12838 64-96, looked up)
B. thailandensis (E264)
  antimicrobial activity / whether an EC50 could be determined: could not be calculated because the peptide was ineffective

## GLKLRFEFSKIKGEFLKTPEVRFRDIKLKDNRISVQR [Scrambled LL-37]
B. thailandensis biofilm
  biofilm inhibition: did not inhibit biofilm; also recorded: did not show biofilm inhibition

## CC(C)(O/N=C(\C(=O)N[C@@H]1C(=O)N2C(C(=O)[O-])=C(C[n+]3ccccc3)CS[C@H]12)c1csc(N)n1)C(=O)O [Ceftazidime]
B. thailandensis biofilm
  biofilm inhibition: did not inhibit biofilm production; also recorded: did not show biofilm inhibition

## RGRKSSRRKK [Peptide 4 of hBD-3]
B. thailandensis (E264)
  antimicrobial activity / whether an EC50 could be determined: could not be calculated because the peptide was ineffective
  killing of B. thailandensis at highest concentration tested: 65%

## hBD-3 (GIINTLQKYYCRVRGGRCAVLSCLPKEEQIGKCSTRGRKCCRRKK; ends and bridges not checked; cysteine pairing not given here; UniProt P81534 23-67, looked up)
[2]
  LD50 against multiple Burkholderia species: > 100 µg/mL

## KRFKKFFKKLK [ATRA-1]
B. thailandensis (E264); 3 h
  EC50: 6.94 µM

## CC(C)C[C@@H](NC(=O)[C@@H](CCCCN)NC(=O)[C@@H](CCCCN)NC(=O)[C@@H](Cc1ccccc1)NC(=O)[C@@H](Cc1ccccc1)NC(=O)[C@@H](CCCCN)NC(=O)[C@@H](CCCCN)NC(=O)[C@@H](C)NC(=O)[C@@H](CCCNC(=N)N)NC(=O)[C@H](N)CCCCN)C(=O)N[C@H](CCCCN)C(N)=O [D-ATRA-1A] (H-[dK][dR][dA][dK][dK][dF][dF][dK][dK][dL][dK]-NH2; N-terminus and C-terminus assumed)
B. thailandensis biofilm
  biofilm inhibition: did slightly, but only at the highest concentration of peptide tested (300 μg/ml); also recorded: Minimal biofilm inhibition
[1]
  dispersion of pre-formed biofilm: no biofilm dispersion activity
B. thailandensis (E264); 3 h
  EC50: 4.82 µM
  EC50 (μg/ml): 6.86 µg/mL (≈ 4.83 µM)
